How the values were obtained:
Assay in all cases: pIC50, kinobeads binding competition
DYRK1B = DYRK1B (UniProt Q9Y463)
Procedure, shortened: (§1)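 Fold changes relative to vehicle, from biological duplicates, were fitted with logistic dose-response models in the R drc package to give pIC50. These fold changes came from TMT10 LC-MS/MS quantification of digested Kinobeads-bound proteins. Compound was applied at nine concentrations (top 30 μM) either to live Jurkat cells in 1:4 steps for 60 min at 37 °C before lysis, or to Jurkat lysate or a 1:1:1:1 HEK293/K-562/HepG2/placenta lysate mix in 1:5 steps for 60 min at 4 °C.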

FER = FER (UniProt P16591)
Procedure, shortened: as §1

HIPK3 = HIPK3 (UniProt Q9H422)
Procedure, shortened: as §1

PCTK3 = PCTK3 (UniProt Q07002)
Procedure, shortened: as §1

PDIK1L = PDIK1L (UniProt Q8N165)
Procedure, shortened: as §1

PIM1 = PIM1 (UniProt P11309); conditions: cell material: Lysate mix
Procedure, shortened: as §1

UniProt O60285 = biological target: T1, UniProt O60285; conditions: cell material: Lysate mix
T1 sequence (whole entry): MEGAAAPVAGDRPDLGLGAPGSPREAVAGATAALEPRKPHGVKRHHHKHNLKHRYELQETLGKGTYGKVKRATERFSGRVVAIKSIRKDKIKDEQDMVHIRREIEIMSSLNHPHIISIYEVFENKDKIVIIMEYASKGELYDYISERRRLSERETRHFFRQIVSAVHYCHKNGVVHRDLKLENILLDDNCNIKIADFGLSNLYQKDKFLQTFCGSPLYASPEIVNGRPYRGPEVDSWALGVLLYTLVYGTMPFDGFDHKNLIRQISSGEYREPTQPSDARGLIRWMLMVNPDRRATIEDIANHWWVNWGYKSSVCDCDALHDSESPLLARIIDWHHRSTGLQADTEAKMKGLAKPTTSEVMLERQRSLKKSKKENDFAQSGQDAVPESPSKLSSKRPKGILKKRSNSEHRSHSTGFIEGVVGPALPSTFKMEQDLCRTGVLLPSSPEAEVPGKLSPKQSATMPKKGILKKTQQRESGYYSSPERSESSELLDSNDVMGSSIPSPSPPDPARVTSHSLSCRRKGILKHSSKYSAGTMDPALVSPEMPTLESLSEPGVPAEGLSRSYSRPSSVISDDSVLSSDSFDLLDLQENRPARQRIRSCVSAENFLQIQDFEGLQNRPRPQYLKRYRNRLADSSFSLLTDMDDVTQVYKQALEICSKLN
Procedure, shortened: as §1

UniProt P19784 = biological target: UniProt P19784
Procedure, shortened: as §1

UniProt P35968 = conditions: cell material: Lysate mix
Procedure, shortened: as §1

UniProt P48730 = biological target: UniProt P48730
Procedure, shortened: as §1

UniProt Q13164 = biological target: UniProt Q13164
Procedure, shortened: as §1

UniProt Q16513 = biological target: UniProt Q16513
Procedure, shortened: as §1

UniProt Q5VT25 = biological target: UniProt Q5VT25
Procedure, shortened: as §1

UniProt Q8TBX8 = biological target: T2, UniProt Q8TBX8
T2 sequence (whole entry): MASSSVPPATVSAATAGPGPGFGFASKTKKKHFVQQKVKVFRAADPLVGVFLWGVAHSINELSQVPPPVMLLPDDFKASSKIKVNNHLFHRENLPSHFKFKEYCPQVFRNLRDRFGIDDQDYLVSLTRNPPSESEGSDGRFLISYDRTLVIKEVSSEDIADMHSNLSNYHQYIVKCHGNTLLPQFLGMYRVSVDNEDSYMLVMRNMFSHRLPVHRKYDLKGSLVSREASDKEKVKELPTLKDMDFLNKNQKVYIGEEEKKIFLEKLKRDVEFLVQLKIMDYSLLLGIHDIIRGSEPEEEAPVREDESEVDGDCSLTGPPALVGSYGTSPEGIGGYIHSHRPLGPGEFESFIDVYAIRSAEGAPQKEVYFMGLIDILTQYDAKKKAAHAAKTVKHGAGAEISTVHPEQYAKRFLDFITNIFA
Procedure, shortened: as §1

UniProt Q8TF76 = biological target: T3, UniProt Q8TF76
T3 sequence (whole entry): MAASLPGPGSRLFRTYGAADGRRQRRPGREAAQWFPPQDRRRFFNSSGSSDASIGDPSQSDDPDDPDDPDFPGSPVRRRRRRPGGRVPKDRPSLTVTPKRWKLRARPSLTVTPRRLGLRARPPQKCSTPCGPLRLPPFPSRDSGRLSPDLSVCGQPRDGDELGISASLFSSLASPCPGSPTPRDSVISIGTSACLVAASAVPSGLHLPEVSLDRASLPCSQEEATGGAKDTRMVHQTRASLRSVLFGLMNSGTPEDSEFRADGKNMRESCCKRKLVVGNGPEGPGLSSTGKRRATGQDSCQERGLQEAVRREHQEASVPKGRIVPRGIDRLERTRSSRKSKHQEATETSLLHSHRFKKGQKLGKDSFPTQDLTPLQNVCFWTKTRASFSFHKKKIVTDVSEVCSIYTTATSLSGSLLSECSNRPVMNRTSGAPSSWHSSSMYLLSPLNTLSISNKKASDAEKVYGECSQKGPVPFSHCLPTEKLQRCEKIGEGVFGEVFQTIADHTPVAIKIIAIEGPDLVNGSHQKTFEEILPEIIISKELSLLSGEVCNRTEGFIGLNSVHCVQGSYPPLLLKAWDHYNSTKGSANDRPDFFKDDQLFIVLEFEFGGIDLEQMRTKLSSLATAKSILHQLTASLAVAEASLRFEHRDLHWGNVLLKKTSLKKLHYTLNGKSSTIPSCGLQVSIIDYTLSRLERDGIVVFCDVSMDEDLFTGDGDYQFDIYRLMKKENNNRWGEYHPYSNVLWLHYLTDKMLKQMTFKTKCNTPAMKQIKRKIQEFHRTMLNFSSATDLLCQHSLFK
Procedure, shortened: as §1

UniProt Q9NSY1 = biological target: UniProt Q9NSY1
Procedure, shortened: as §1

Row | pIC50 (DYRK1B; cell material: Lysate mix) | pIC50 (FER; cell material: Lysate mix) | pIC50 (HIPK3; cell material: Lysate mix) | pIC50 (PCTK3; cell material: Lysate mix) | pIC50 (PDIK1L; cell material: Lysate mix) | pIC50 (PIM1) | pIC50 (UniProt O60285) | pIC50 (UniProt P19784; cell material: Lysate mix) | pIC50 (UniProt P35968) | pIC50 (UniProt P48730; cell material: Lysate mix) | pIC50 (UniProt Q13164; cell material: Lysate mix) | pIC50 (UniProt Q16513; cell material: Lysate mix) | pIC50 (UniProt Q5VT25; cell material: Lysate mix) | pIC50 (UniProt Q8TBX8; cell material: Lysate mix) | pIC50 (UniProt Q8TF76; cell material: Lysate mix) | pIC50 (UniProt Q9NSY1; cell material: Lysate mix) | pIC50 (DYRK1B; cell material: Jurkat cells) | pIC50 (DYRK1B; cell material: Jurkat lysate) | pIC50 (FER; cell material: Jurkat cells) | pIC50 (FER; cell material: Jurkat lysate) | pIC50 (HIPK3; cell material: Jurkat cells) | pIC50 (HIPK3; cell material: Jurkat lysate) | pIC50 (PCTK3; cell material: Jurkat cells) | pIC50 (PCTK3; cell material: Jurkat lysate) | pIC50 (PDIK1L; cell material: Jurkat cells) | pIC50 (PDIK1L; cell material: Jurkat lysate) | pIC50 (UniProt P19784; cell material: Jurkat cells) | pIC50 (UniProt P19784; cell material: Jurkat lysate) | pIC50 (UniProt P48730; cell material: Jurkat cells) | pIC50 (UniProt P48730; cell material: Jurkat lysate) | pIC50 (UniProt Q13164; cell material: Jurkat cells) | pIC50 (UniProt Q13164; cell material: Jurkat lysate) | pIC50 (UniProt Q16513; cell material: Jurkat lysate) | pIC50 (UniProt Q5VT25; cell material: Jurkat cells) | pIC50 (UniProt Q5VT25; cell material: Jurkat lysate) | pIC50 (UniProt Q8TBX8; cell material: Jurkat lysate) | pIC50 (UniProt Q8TF76; cell material: Jurkat cells) | pIC50 (UniProt Q8TF76; cell material: Jurkat lysate) | pIC50 (UniProt Q9NSY1; cell material: Jurkat cells) | pIC50 (UniProt Q9NSY1; cell material: Jurkat lysate) | SMILES
1 | < 4.52 | < 4.52 | < 4.52 | < 4.52 | < 4.52 | < 4.52 | < 4.52 | < 4.52 | < 4.52 | < 4.52 | < 4.52 | < 4.52 | < 4.52 | < 4.52 | < 4.52 | < 4.52 | – | – | – | – | – | – | – | – | – | – | – | – | – | – | – | – | – | – | – | – | – | – | – | – | Cc1cc(Nc2cc(C(=O)NCCNC(=O)OC3CC/C=C/CCC3)nc(N3CCN(Cc4ccc(S(=O)(=O)F)cc4)CC3)n2)n[nH]1 (configuration not stated)
2 | < 4.52 | 4.78 | 4.76 | < 4.52 | 5.14 | < 4.52 | < 4.52 | 4.78 | < 4.52 | < 4.52 | < 4.52 | < 4.52 | < 4.52 | < 4.52 | < 4.52 | < 4.52 | – | – | – | – | – | – | – | – | – | – | – | – | – | – | – | – | – | – | – | – | – | – | – | – | C#CCNC(=O)c1cc(Nc2cc(C)[nH]n2)nc(N2CCN(Cc3ccc(S(=O)(=O)F)cc3)CC2)n1
3 | < 4.52 | < 4.52 | < 4.52 | < 4.52 | < 4.52 | < 4.52 | < 4.52 | < 4.52 | < 4.52 | < 4.52 | < 4.52 | < 4.52 | < 4.52 | < 4.52 | < 4.52 | < 4.52 | 4.8 | < 4.52 | 5.6 | < 4.52 | 5.22 | < 4.52 | 5.7 | < 4.52 | 5.43 | < 4.52 | 4.7 | < 4.52 | < 4.52 | < 4.52 | 4.92 | < 4.52 | < 4.52 | < 4.52 | < 4.52 | < 4.52 | < 4.52 | < 4.52 | < 4.52 | < 4.52 | O=C(NCCNC(=O)c1cc(Nc2cc(C3CC3)[nH]n2)nc(N2CCN(Cc3ccc(S(=O)(=O)F)cc3)CC2)n1)OC1CC/C=C/CCC1 (configuration not stated)

— the supplement of paper PMC12076712
